# Laboratory results: ChEMBL document CHEMBL1125519, “Thieno[2,3-b]furan-2-sulfonamides as topical carbonic anhydrase inhibitors” (J Med Chem, 1992)
# System: not listed separately
# Test: Solubility was evaluated at pH 7.4 buffer at 25 degree Centigrade
# Assay type: physicochemical
# Conditions: not given
row,SMILES,solubility [mg/mL]
1,NS(=O)(=O)c1cc2cc(CNCc3ccccn3)sc2o1,16.9
2,CCOCCNCc1cc2cc(S(N)(=O)=O)oc2s1,19.7
3,NS(=O)(=O)c1cc2cc(CN3CCOCC3)sc2o1,0.97
4,COCCNCc1cc2cc(S(N)(=O)=O)oc2s1,> 27

# System: not listed separately
# Test: physchem
# Conditions: water
row,SMILES,pKa
1,NS(=O)(=O)c1cc2cc(CNCc3ccccn3)sc2o1,7.02
2,CNCc1cc2cc(S(N)(=O)=O)oc2s1,7.85
3,COCCN(CCOC)Cc1cc2cc(S(N)(=O)=O)oc2s1,5.57
4,CC(C)CNCc1cc2cc(S(N)(=O)=O)oc2s1,7.55
5,NS(=O)(=O)c1cc2cc(CNCCCCO)sc2o1,7.65

# Second part, the compound after the results:
row,pKa,SMILES
1,6.55,NS(=O)(=O)c1cc2cc(CNCCF)sc2o1
2,5.55,COCCOCCN(CCOC)Cc1cc2cc(S(N)(=O)=O)oc2s1
3,7.25,COCCCNCc1cc2cc(S(N)(=O)=O)oc2s1
4,7.85,CCCNCc1cc2cc(S(N)(=O)=O)oc2s1

# Species: Bos taurus
# Test: Percentage binding to bovine iris and ciliary body
# Assay type: functional
# Conditions: not given
row,SMILES,Pigment binding [%]
1,CNCc1cc2cc(S(N)(=O)=O)oc2s1,77
2,COCCN(CCOC)Cc1cc2cc(S(N)(=O)=O)oc2s1,27
3,CCOCCNCc1cc2cc(S(N)(=O)=O)oc2s1,75
4,NS(=O)(=O)c1cc2cc(CN3CCOCC3)sc2o1,25
5,CC(C)CNCc1cc2cc(S(N)(=O)=O)oc2s1,73
6,COCCNCc1cc2cc(S(N)(=O)=O)oc2s1,73
7,CCCNCc1cc2cc(S(N)(=O)=O)oc2s1,68

# Species: Bos taurus
# Test: not given
# Conditions: not given
row,SMILES,Pigment binding [%]
1,NS(=O)(=O)c1cc2cc(CNCCF)sc2o1,60
2,NS(=O)(=O)c1cc2cc(CNCc3ccccn3)sc2o1,69
3,COCCOCCN(CCOC)Cc1cc2cc(S(N)(=O)=O)oc2s1,21
4,COCCCNCc1cc2cc(S(N)(=O)=O)oc2s1,78

# Species: Oryctolagus cuniculus
# Test: Compound was evaluated for the lowering of the intraocular pressure (IOP) (2%, 3 drops) in ocular normotensive pigmented rabbits
# Assay type: functional, Eye
# Conditions: not given
row,SMILES,IOP lowering [mmHg]
1,COCCN(CCOC)Cc1cc2cc(S(N)(=O)=O)oc2s1,3.9
2,NS(=O)(=O)c1cc2cc(CN3CCOCC3)sc2o1,2.5

# System: not listed separately
# Test: physchem
# Conditions: water
# Remark: another data set of the same source
# Description: Solubility was evaluated in water at 25 degree Centigrade
row,SMILES,solubility [mg/mL]
1,NS(=O)(=O)c1cc2cc(CNCc3ccccn3)sc2o1,20.4
2,CNCc1cc2cc(S(N)(=O)=O)oc2s1,> 51
3,COCCN(CCOC)Cc1cc2cc(S(N)(=O)=O)oc2s1,> 30
4,NS(=O)(=O)c1cc2cc(CN3CCOCC3)sc2o1,> 4.7
5,CC(C)CNCc1cc2cc(S(N)(=O)=O)oc2s1,15.3
6,NS(=O)(=O)c1cc2cc(CNCCCCO)sc2o1,> 47

# The remaining lines, values ahead:
row,solubility [mg/mL],SMILES
1,> 32,NS(=O)(=O)c1cc2cc(CNCCF)sc2o1
2,40.8,CCOCCNCc1cc2cc(S(N)(=O)=O)oc2s1
3,> 34,COCCCNCc1cc2cc(S(N)(=O)=O)oc2s1
4,> 27,COCCNCc1cc2cc(S(N)(=O)=O)oc2s1
5,> 22.5,CCCNCc1cc2cc(S(N)(=O)=O)oc2s1

# Target: T1, Carbonic anhydrase 2 (Homo sapiens, UniProt P00918)
# Test: not given
# Conditions: not given
row,SMILES,Ki [nM]
1,NS(=O)(=O)c1cc2cc(CNCc3ccccn3)sc2o1,8.2
2,CNCc1cc2cc(S(N)(=O)=O)oc2s1,32.3
3,COCCN(CCOC)Cc1cc2cc(S(N)(=O)=O)oc2s1,2.6
4,NS(=O)(=O)c1cc2cc(CN3CCOCC3)sc2o1,1.24
5,CC(C)CNCc1cc2cc(S(N)(=O)=O)oc2s1,7.4

# Further lines, results first:
row,Ki [nM],SMILES
1,3.4,NS(=O)(=O)c1cc2cc(CNCCF)sc2o1
2,3.6,COCCOCCN(CCOC)Cc1cc2cc(S(N)(=O)=O)oc2s1

# Species: Bos taurus
# Test: Percentage binding of bovine ocular pigment
# Assay type: functional, Eye
# Conditions: not given
row,SMILES,Binding [%]
1,COCCN(CCOC)Cc1cc2cc(S(N)(=O)=O)oc2s1,26.9
2,NS(=O)(=O)c1cc2cc(CN3CCOCC3)sc2o1,24.8

# System: not listed separately
# Test: pKa in water
# Assay type: physicochemical
# Conditions: not given
row,pKa,SMILES
1,6.85,CCOCCNCc1cc2cc(S(N)(=O)=O)oc2s1
2,7,COCCNCc1cc2cc(S(N)(=O)=O)oc2s1

row,SMILES,pKa
1,NS(=O)(=O)c1cc2cc(CN3CCOCC3)sc2o1,5.32

# System: not listed separately
# Test: physchem
# Conditions: 30% ethanol
row,SMILES,pKa
1,NS(=O)(=O)c1cc2cc(CNCc3ccccn3)sc2o1,9.08
2,CNCc1cc2cc(S(N)(=O)=O)oc2s1,9.25
3,COCCN(CCOC)Cc1cc2cc(S(N)(=O)=O)oc2s1,8.95
4,NS(=O)(=O)c1cc2cc(CN3CCOCC3)sc2o1,9.2
5,CC(C)CNCc1cc2cc(S(N)(=O)=O)oc2s1,9.1
6,NS(=O)(=O)c1cc2cc(CNCCCCO)sc2o1,9.16

# The next lines start with the values.
row,pKa,SMILES
1,9,NS(=O)(=O)c1cc2cc(CNCCF)sc2o1
2,8.85,COCCOCCN(CCOC)Cc1cc2cc(S(N)(=O)=O)oc2s1
3,8.9,CCOCCNCc1cc2cc(S(N)(=O)=O)oc2s1
4,9,COCCCNCc1cc2cc(S(N)(=O)=O)oc2s1
5,9.05,COCCNCc1cc2cc(S(N)(=O)=O)oc2s1
6,9.4,CCCNCc1cc2cc(S(N)(=O)=O)oc2s1

# Target: T1, Carbonic anhydrase 2
# Test: not given
# Conditions: not given
# Remark: another data set of the same source
row,SMILES,IC50 [nM]
1,NS(=O)(=O)c1cc2cc(CNCc3ccccn3)sc2o1,8.2
2,CNCc1cc2cc(S(N)(=O)=O)oc2s1,9
3,COCCN(CCOC)Cc1cc2cc(S(N)(=O)=O)oc2s1,5.1
4,NS(=O)(=O)c1cc2cc(CN3CCOCC3)sc2o1,5.6
5,CC(C)CNCc1cc2cc(S(N)(=O)=O)oc2s1,6
6,NS(=O)(=O)c1cc2cc(CNCCCCO)sc2o1,11

# More lines, now with the values ahead:
row,IC50 [nM],SMILES
1,12,NS(=O)(=O)c1cc2cc(CNCCF)sc2o1
2,6.49,COCCOCCN(CCOC)Cc1cc2cc(S(N)(=O)=O)oc2s1
3,8,CCOCCNCc1cc2cc(S(N)(=O)=O)oc2s1
4,12,COCCCNCc1cc2cc(S(N)(=O)=O)oc2s1
5,11,COCCNCc1cc2cc(S(N)(=O)=O)oc2s1
6,8,CCCNCc1cc2cc(S(N)(=O)=O)oc2s1
